These results are taken from EP3231799A1, “4-(AZETIDIN-1-YL)PYRIMIDINE DERIVATIVES WITH ANTI-MITOTIC AND ANTI-PROLIFERATIVE ACTIVITY” (Universität Basel, priority 2016, dated 2017).

The assay concerns A2058 melanoma cells. Briefly: Mitotic arrest (microtubule binding) in A2058 melanoma cells, high-content microscopy. It is filed as cell-based. To be noted: Homo sapiens, inhibitors 1 - 0.008 µM for 24 hours, mean value of at least four experiments. As to the method: Microtubule binding of compounds of formula (I) was determined in A2058 melanoma cells measuring mitotic arrest in high-throughput, high-content microscopic approaches. Microtubule networks or their depolymerization were visualized in parallel. Cellular tests are beneficial to address the biological question of tubulin binding, but also indirectly measure the uptake of a compound by cells. A hallmark of microtubule modifying agents (stabilizing or de-stabilizing) is a mitotic arrest cell cycle arrest of dividing cells, which was measured using the following protocol: • Cell preparation: 5000 A2058 cells were seeded in 100 µl complete DMEM into 96-well plates (Cell Carrier, Perkin Elmer) the day before inhibitor treatment. Cells were exposed to inhibitors (ranging from 1 - 0.008 µM) for 24 hours and fixed by addition of half a volume 10% PFA in PBS (30 min., RT). Cells were permeabilized and stained with Hoechst33324 by addition of 1:10 volume of 1%BSA/1% Triton X-100, 10 µM Hoechst33324 in PBS (30 min., RT), followed by a first image acquisition. Subsequently cells were additionally stained with rabbit anti pSer^10 Histone H3 (Cell Signaling Technologies) and rat anti-α-tubulin (Santa Cruz Technologies, overnight, 4 °C, shaking). Cells were washed and incubated with Alexa 488 conjugated goat anti rat IgG, Alexa 647 conjugated goat anti rabbit IgG antibodies (Life Technologies) and 1 µM Hoechst33324 in 1% BSA/0.1% Triton X-100/1x PBS (shaking; RT; dark), followed by 3 wash cycles and a 2nd round of imaging. • Image acquisition: Fluorescent microscopy images were acquired on an Operetta high content analysis system (Perkin Elmer). 35 fields of view/well were acquired as wide field images (20xWD objective). 1st acquisition: Nuclear DNA content and DNA morphology was imaged using the DAPI filter set. 2nd acquisition: Nuclear DNA, phosphorylated Histone H3 and α-tubulin images were acquired using DAPI, Alexa488 and Alexa647 filter sets. • Image analysis: Images were batch analysed using Columbus software (PerkinElmer). Analyses were run including single cell analysis mode. The total number of nuclei was determined in the DAPI channel. Nuclear DNA was classified into "normal" or "condensed" using a linear classifier mode. The percentage of cells with condensed DNA was calculated for each well (% condensed = (# condensed/ # total) *100). The fraction of cells with pSer10 Histone H3 positive nuclei was determined using Hoechst33342 and Alexa647 signals. 1st the nuclei were identified using DNA staining (Hoechst33342; excluding nuclei at image borders). 2nd the identified nuclei were classified positive or negative for pSer10 Histone H3 by two filters using the "filter by properties" mode based on Alexa 647 intensities. Alexa 647 filter properties were i) mean intensities above threshold /nucleus and ii) a maximum intensity above threshold. Calculation: % Alexa 647^positive = (# Alexa 647^positive / # selected nuclei) *100.
The percentage of cells with condensed DNA and the percentage of pSer10 Histone H3 positive nuclei were blotted as function of inhibitor concentration (log scale) using GraphPad Prism. Half maximal effective concentrations (EC50) of inhibitors were determined using GraphPad's "non-linear regression with variable slope" formula (Y=Bottom + (Top-Bottom)/(1+10^((LogEC50-X)*HillSlope))). Table 1: Effect of selected formula (I) compounds on mitotic arrest in A2058 cells. Half-maximal effective concentrations are given as mean value of at least four experiments for the indicated cellular phenotypes.

Where [1] appears, read: percentage of cells with condensed DNA, read-out: Half-maximal effective concentrations (EC50), Condensed DNA.
Where [2] appears, read: percentage of pSer10 Histone H3 positive nuclei, read-out: Half-maximal effective concentrations (EC50), pSer10 Histone H3.

pEC50: −log10 of the molar value. Where two headings read alike, the source gives them in different places.

As to `Nc1cc(C(F)(F)F)c(-c2cc(N3CC(F)(F)C3)nc(N3CCC(O)CC3)n2)cn1` [Compound 40, 1-(4-(6-amino-4-(trifluoromethyl)pyridin-3-yl)-6-(3,3-difluoroazetidin-1-yl)pyrimidin-2-yl)piperidin-4-ol], the pEC50 under setting [1] was 6.89 and the pEC50 under setting [2] was 6.87. As for `Nc1cc(C(F)(F)F)c(-c2cc(N3CC(F)(F)C3)nc(N3CCC(=O)CC3)n2)cn1` [Compound 76, 1-(4-(6-amino-4-(trifluoromethyl)pyridin-3-yl)-6-(3,3-difluoroazetidin-1-yl)pyrimidin-2-yl)piperidin-4-one], the pEC50 under setting [1] was 6.89 and the pEC50 under setting [2] was 6.90. As for `Nc1ncc(-c2cc(N3CC(F)(F)C3)nc(N3CCOCC3)n2)c(C(F)(F)F)n1` [Compound 8, 6-(3,3-difluoroazetidin-1-yl)-2-morpholino-4'-(trifluoromethyl)-[4,5'-bipyrimidin]-2'-amine], the pEC50 under setting [1] is 7.15 and the pEC50 under setting [2] is 7.14.

`Nc1cc(C(F)(F)F)c(-c2cc(N3CCC3)nc(N3CCOCC3)n2)cn1` [Compound 1, 5-(6-(azetidin-1-yl)-2-morpholinopyrimidin-4-yl)-4-(trifluoromethyl)pyridin-2-amine]: the pEC50 runs as follows: under setting [1], 7.10; under setting [2], 7.10. With `Nc1cc(C(F)(F)F)c(-c2cc(N3CC(F)C3)nc(N3CCOCC3)n2)cn1` [Compound 2, 5-(6-(3-fluoroazetidin-1-yl)-2-morpholinopyrimidin-4-yl)-4-(trifluoromethyl)pyridin-2-amine], the pEC50 by setting is: under setting [1], 7.15; under setting [2], 6.82. In the case of `Nc1cc(C(F)(F)F)c(-c2cc(N3CC(F)(F)C3)nc(N3CCOCC3)n2)cn1` [Compound 4, 5-(6-(3,3-difluoroazetidin-1-yl)-2-morpholinopyrimidin-4-yl)-4-(trifluoromethyl)pyridin-2-amine], the pEC50 reads like this: under setting [1], 7.19; under setting [2], 7.10. In the case of `C[C@@H]1COCCN1c1nc(-c2cnc(N)cc2C(F)(F)F)cc(N2CC(F)(F)C2)n1` [Compound 16, (R)-5-(6-(3,3-difluoroazetidin-1-yl)-2-(3-methylmorpholino)pyrimidin-4-yl)-4-(trifluoromethyl)pyridin-2-amine], the pEC50 by setting is: under setting [1], 6.95; under setting [2], 6.94. On to `CC1CN(c2cc(-c3cnc(N)cc3C(F)(F)F)nc(N3CCOCC3)n2)C1` [Compound 3, 5-(6-(3-methylazetidin-1-yl)-2-morpholinopyrimidin-4-yl)-4-(trifluoromethyl)pyridin-2-amine], for which the pEC50 under setting [1] was 7.04.
